# Test results reported in ChEMBL document CHEMBL5108067, “Discovery of Potent OTUB1/USP8 Dual Inhibitors Targeting Proteostasis in Non-Small-Cell Lung Cancer” (J Med Chem, 2022).
# Activity calls are given as the source filed them. No cut-off for these calls is given here.
# Target: T1, Ubiquitin thioesterase OTUB1 (Homo sapiens, UniProt Q96FW1)
# Assay: Binding affinity to OTUB1 in HEK293T cells at 1 uM preincubated for 2 hrs followed by UV irradiation and measured after 20 mins by silver staining based gel electrophoresis assay
# Assay type: cell-based
# Conditions: time 140.0 min
# T1 sequence (Q96FW1 whole entry): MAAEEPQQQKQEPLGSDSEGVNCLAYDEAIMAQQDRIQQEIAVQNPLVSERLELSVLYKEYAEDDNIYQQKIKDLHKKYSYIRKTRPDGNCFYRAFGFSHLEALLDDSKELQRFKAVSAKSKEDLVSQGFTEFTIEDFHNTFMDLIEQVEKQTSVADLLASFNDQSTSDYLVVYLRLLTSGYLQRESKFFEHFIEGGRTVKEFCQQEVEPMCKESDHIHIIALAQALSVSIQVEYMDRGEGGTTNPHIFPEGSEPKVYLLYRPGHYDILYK
row,Structure (SMILES),Activity
1,C#CCCC1(CCN2CC[C@@H](Oc3cccc(-c4nc5c(o4)C(=O)c4ccccc4C5=O)c3)C2)N=N1,Active

# Target: T1, Ubiquitin thioesterase OTUB1
# Assay: Binding affinity to OTUB1 in HEK293T cells at 0.5 uM preincubated for 2 hrs followed by UV irradiation and measured after 20 mins by Western blot analysis
# Assay type: cell-based
# Conditions: time 140.0 min
row,Structure (SMILES),Activity
1,C#CCCC1(CCN2CC[C@@H](Oc3cccc(-c4nc5c(o4)C(=O)c4ccccc4C5=O)c3)C2)N=N1,Active

# Target: T1, Ubiquitin thioesterase OTUB1
# Assay: Binding affinity to OTUB1 in HEK293T cells at […] preincubated for 30 mins followed by UV irradiation and measured after 20 mins by Western blot analysis
# Assay type: cell-based
# Conditions: dose 2.5 µM, time 50.0 min
row,Structure (SMILES),Activity
1,C#CCCC1(CCN2CC[C@@H](Oc3cccc(-c4nc5c(o4)C(=O)c4ccccc4C5=O)c3)C2)N=N1,Active

# Target: T1, Ubiquitin thioesterase OTUB1
# Assay: Inhibition of N-terminal His-6 tagged OTUB1 (40 to 271 residues) (unknown origin) expressed in Escherichia coli BL21 (DE3) cells at 10 nM using Ub-Rho measured after 0.5 to 3 hrs by fluorescence based Plate reader method relative to control
# Conditions: time 0.5-3 hrs, values are per cent of control
row,Structure (SMILES),residual activity [%]
1,CN1CCN(CCOc2ccc(Cl)c(-c3nc4c(o3)C(=O)c3ccccc3C4=O)c2F)CC1,14.4
2,O=C1c2ccccc2C(=O)c2oc(-c3c(F)cccc3Cl)nc21,37.3
3,CN1CC[C@@H](Oc2cc(-c3nc4c(o3)C(=O)c3ccccc3C4=O)ccc2Cl)C1,23.6
4,O=C1c2ccccc2C(=O)c2oc(-c3c(F)ccc(F)c3Cl)nc21,23.3
5,O=C1c2ccccc2C(=O)c2oc(-c3cccc(C(F)(F)F)c3)nc21,23.1
6,Cc1cccc(Cl)c1-c1nc2c(o1)C(=O)c1ccccc1C2=O,55.4
7,O=C1c2ccccc2C(=O)c2oc(-c3ccccc3C(F)(F)F)nc21,62.6
8,CN1CCN(CCOc2cc(Cl)cc(-c3nc4c(o3)C(=O)c3ccccc3C4=O)c2)CC1,77.3
9,O=C1c2ccccc2C(=O)c2oc(-c3ccc(Cl)cc3Cl)nc21,62.4
10,O=C1c2ccccc2C(=O)c2[nH]c(-c3ccccc3)nc21,84.3
11,O=C1c2ccccc2C(=O)c2oc(-c3ccc(C(F)(F)F)cc3)nc21,60.3
12,COc1cc(OC)cc(-c2nc3c(o2)C(=O)c2ccccc2C3=O)c1,83.6

# Target: T2, Ubiquitin carboxyl-terminal hydrolase 8 (Homo sapiens) (UniProt P40818)
# T2 sequence (whole entry): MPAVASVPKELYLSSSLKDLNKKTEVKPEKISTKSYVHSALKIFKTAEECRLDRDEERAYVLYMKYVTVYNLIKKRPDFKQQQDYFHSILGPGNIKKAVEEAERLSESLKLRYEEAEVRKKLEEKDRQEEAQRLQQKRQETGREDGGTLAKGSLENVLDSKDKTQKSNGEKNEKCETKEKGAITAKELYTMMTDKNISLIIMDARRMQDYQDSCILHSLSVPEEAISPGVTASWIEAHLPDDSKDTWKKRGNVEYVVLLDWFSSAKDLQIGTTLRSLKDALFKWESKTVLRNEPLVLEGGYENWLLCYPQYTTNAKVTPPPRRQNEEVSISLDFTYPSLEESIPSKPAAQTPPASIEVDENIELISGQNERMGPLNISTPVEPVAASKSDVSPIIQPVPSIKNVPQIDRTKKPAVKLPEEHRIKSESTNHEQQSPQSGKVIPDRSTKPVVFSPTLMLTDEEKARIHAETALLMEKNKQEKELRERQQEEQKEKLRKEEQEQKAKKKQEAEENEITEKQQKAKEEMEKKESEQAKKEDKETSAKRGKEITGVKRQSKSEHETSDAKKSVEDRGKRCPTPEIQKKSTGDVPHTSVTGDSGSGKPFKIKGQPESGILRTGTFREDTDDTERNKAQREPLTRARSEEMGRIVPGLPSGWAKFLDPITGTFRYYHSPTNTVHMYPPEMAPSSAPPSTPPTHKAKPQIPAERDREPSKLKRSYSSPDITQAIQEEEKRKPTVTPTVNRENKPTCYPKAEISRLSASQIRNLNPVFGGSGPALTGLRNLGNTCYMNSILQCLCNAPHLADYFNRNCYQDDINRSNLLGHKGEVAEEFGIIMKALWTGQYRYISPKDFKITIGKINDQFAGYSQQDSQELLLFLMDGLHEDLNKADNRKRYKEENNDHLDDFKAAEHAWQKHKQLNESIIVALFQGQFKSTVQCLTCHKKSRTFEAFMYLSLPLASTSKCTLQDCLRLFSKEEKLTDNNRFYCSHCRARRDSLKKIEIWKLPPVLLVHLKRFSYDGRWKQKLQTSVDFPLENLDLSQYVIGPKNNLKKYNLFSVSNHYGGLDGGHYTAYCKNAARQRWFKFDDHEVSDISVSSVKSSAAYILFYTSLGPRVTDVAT
# Assay: Inhibition of N-terminal His-6 tagged USP8 (734 to 1110 residues) (unknown origin) expressed in Escherichia coli BL21 (DE3) cells at 100 nM measured after 3 hrs by fluorescence based Plate reader method relative to control
# Conditions: values are per cent of control
row,Structure (SMILES),residual activity [%]
1,CN1CCN(CCOc2ccc(Cl)c(-c3nc4c(o3)C(=O)c3ccccc3C4=O)c2F)CC1,32.6
2,O=C1c2ccccc2C(=O)c2oc(-c3c(F)cccc3Cl)nc21,26.5
3,CN1CC[C@@H](Oc2cc(-c3nc4c(o3)C(=O)c3ccccc3C4=O)ccc2Cl)C1,24.9
4,O=C1c2ccccc2C(=O)c2oc(-c3c(F)ccc(F)c3Cl)nc21,28.4
5,O=C1c2ccccc2C(=O)c2oc(-c3cccc(C(F)(F)F)c3)nc21,21.6
6,Cc1cccc(Cl)c1-c1nc2c(o1)C(=O)c1ccccc1C2=O,15.5
7,O=C1c2ccccc2C(=O)c2oc(-c3ccccc3C(F)(F)F)nc21,17.7
8,CN1CCN(CCOc2cc(Cl)cc(-c3nc4c(o3)C(=O)c3ccccc3C4=O)c2)CC1,27.9
9,O=C1c2ccccc2C(=O)c2oc(-c3ccc(Cl)cc3Cl)nc21,16
10,O=C1c2ccccc2C(=O)c2[nH]c(-c3ccccc3)nc21,92.5
11,O=C1c2ccccc2C(=O)c2oc(-c3ccc(C(F)(F)F)cc3)nc21,18.2
12,COc1cc(OC)cc(-c2nc3c(o2)C(=O)c2ccccc2C3=O)c1,52.2

# Test system: not listed separately
# Assay: Aqueous solubility of the compound measured after 24 hr by […] LC-MS/MS analysis
# Assay type: physicochemical
# Conditions: buffer
row,Structure (SMILES),solubility
1,CN1CCN(CCOc2ccc(Cl)c(-c3nc4c(o3)C(=O)c3ccccc3C4=O)c2F)CC1,Soluble
2,O=C1c2ccccc2C(=O)c2oc(-c3c(F)cccc3Cl)nc21,Insoluble
3,CN1CC[C@@H](Oc2cc(-c3nc4c(o3)C(=O)c3ccccc3C4=O)ccc2Cl)C1,Soluble
4,O=C1c2ccccc2C(=O)c2oc(-c3c(F)ccc(F)c3Cl)nc21,Insoluble
5,O=C1c2ccccc2C(=O)c2oc(-c3cccc(C(F)(F)F)c3)nc21,Insoluble

# Target: T2, Ubiquitin carboxyl-terminal hydrolase 8 (Homo sapiens)
# Assay: Inhibition of N-terminal His-6 tagged USP8 (734 to 1110 residues) (unknown origin) expressed in Escherichia coli BL21 (DE3) cells at 10 nM measured after 3 hrs by fluorescence based Plate reader method relative to control
# Conditions: values are per cent of control
row,Structure (SMILES),residual activity [%]
1,CN1CCN(CCOc2ccc(Cl)c(-c3nc4c(o3)C(=O)c3ccccc3C4=O)c2F)CC1,33.1
2,O=C1c2ccccc2C(=O)c2oc(-c3c(F)cccc3Cl)nc21,62.9
3,CN1CC[C@@H](Oc2cc(-c3nc4c(o3)C(=O)c3ccccc3C4=O)ccc2Cl)C1,51.8
4,O=C1c2ccccc2C(=O)c2oc(-c3c(F)ccc(F)c3Cl)nc21,52.4
5,O=C1c2ccccc2C(=O)c2oc(-c3cccc(C(F)(F)F)c3)nc21,54.4
6,Cc1cccc(Cl)c1-c1nc2c(o1)C(=O)c1ccccc1C2=O,40.1
7,O=C1c2ccccc2C(=O)c2oc(-c3ccccc3C(F)(F)F)nc21,50.7
8,CN1CCN(CCOc2cc(Cl)cc(-c3nc4c(o3)C(=O)c3ccccc3C4=O)c2)CC1,58.8
9,O=C1c2ccccc2C(=O)c2oc(-c3ccc(Cl)cc3Cl)nc21,58.4
10,O=C1c2ccccc2C(=O)c2[nH]c(-c3ccccc3)nc21,92.5
11,O=C1c2ccccc2C(=O)c2oc(-c3ccc(C(F)(F)F)cc3)nc21,37.8
12,COc1cc(OC)cc(-c2nc3c(o2)C(=O)c2ccccc2C3=O)c1,72.2

# Target: T1, Ubiquitin thioesterase OTUB1
# Assay: Inhibition of N-terminal His-6 tagged OTUB1 (40 to 271 residues) (unknown origin) expressed in Escherichia coli BL21 (DE3) cells at 100 nM using Ub-Rho measured after 0.5 to 3 hrs by fluorescence based Plate reader method relative to control
# Conditions: time 0.5-3 hrs, values are per cent of control
row,Structure (SMILES),residual activity [%]
1,CN1CCN(CCOc2ccc(Cl)c(-c3nc4c(o3)C(=O)c3ccccc3C4=O)c2F)CC1,7.2
2,O=C1c2ccccc2C(=O)c2oc(-c3c(F)cccc3Cl)nc21,9.6
3,CN1CC[C@@H](Oc2cc(-c3nc4c(o3)C(=O)c3ccccc3C4=O)ccc2Cl)C1,12.8
4,O=C1c2ccccc2C(=O)c2oc(-c3c(F)ccc(F)c3Cl)nc21,10.4
5,O=C1c2ccccc2C(=O)c2oc(-c3cccc(C(F)(F)F)c3)nc21,13.2
6,Cc1cccc(Cl)c1-c1nc2c(o1)C(=O)c1ccccc1C2=O,23.5
7,O=C1c2ccccc2C(=O)c2oc(-c3ccccc3C(F)(F)F)nc21,25.8
8,CN1CCN(CCOc2cc(Cl)cc(-c3nc4c(o3)C(=O)c3ccccc3C4=O)c2)CC1,36.3
9,O=C1c2ccccc2C(=O)c2oc(-c3ccc(Cl)cc3Cl)nc21,42.2
10,O=C1c2ccccc2C(=O)c2[nH]c(-c3ccccc3)nc21,78.3
11,O=C1c2ccccc2C(=O)c2oc(-c3ccc(C(F)(F)F)cc3)nc21,29
12,COc1cc(OC)cc(-c2nc3c(o2)C(=O)c2ccccc2C3=O)c1,48.1

# Target: T1, Ubiquitin thioesterase OTUB1
# Assay: Inhibition of N-terminal His-6 tagged OTUB1 (40 to 271 residues) (unknown origin) expressed in Escherichia coli BL21 (DE3) cells using Ub-Rho measured after 0.5 to 3 hrs by fluorescence based Plate reader method
# Conditions: not given
row,Structure (SMILES),IC50 [nM]
1,C#CCCC1(CCN2CC[C@@H](Oc3cccc(-c4nc5c(o4)C(=O)c4ccccc4C5=O)c3)C2)N=N1,37
